Here are results for six molecules from US8802054B2, “Method for characterizing the oxidative stress protective capacity of an antioxidative substance” (PCR Technology Holdings, LC, priority 2005, dated 2014).

The test system of assay [1] is Human primary foreskin keratinocytes. As to the kind of experiment: UVB irradiation of keratinocytes measuring DNA damage (nuclear thymine dimer staining). Format: cell-based. Also noted: Inhibition of photoproduct generation (protective effect): concentration or dose not given beside the values. To be noted: for Positive cells after UVB radiation (anti-thymine dimer antibody positive cells) / Inhibition of photoproduct generation (protective effect): 200 mJ/cm2 UVB; for Positive cells after UVB radiation (anti-thymine dimer antibody positive cells): positive cells above threshold in three fields, irradiated control 53%; for Inhibition of photoproduct generation (protective effect): relative to irradiated control; for UVB Irradiated Keratinocytes score: normalized to best performer = 20 points. The text has this:
Test 5: UVB Irradiation of Keratinocytes Measuring DNA Damage
This test assessed DNA damage in cell culture experiments under pro-oxidative conditions (UVB irradiation of human keratinocytes) by measuring the positive cells for anti-thymine dimer antibodies. This experiment is thought to reflect a direct correlation to the in vivo occurring DNA cross linking damage following UVB exposure and the protection of such nuclear damage by antioxidants.
Human primary foreskin keratinocytes (second passage) were grown in 6-well plates containing cover slips to 60% confluence in serum free medium (KGM, Clonetics) containing 0.07 mM CaCl2. Six hours before UVB-radiation medium was removed and replaced by fresh growth medium with or without the antioxidative substances.
Keratinocyte cultures were irradiated with a single dose of 200 mJ/cm2 UVB, using FS-20/T-12 bulbs (emission range: 280-340 nm; 305 nm max.). Immediately prior to irradiation, the medium was replaced with 1 ml sterile PBS (pH 7.4, 37° C.), and after irradiation, PBS was replaced with fresh growth medium. UVB exposure was quantitated using a Goldilux Ultraviolet radiometer. Cells were maintained at 37° C. (5% CO2) for 1 hour until fixation with paraformaldehyde (PFA).
Cells were fixed with 4% PFA in PBS for 30 min at RT, washed with PBS and permeabilized by incubation with EtOH/PBS (90/10; v %/v %) for 30 min at ˜10° C. After fixation and permeabilization cells were washed twice with PBS containing 1% of bovine serum albumin (BSA). They were then incubated for 30 min with 10 μg/ml anti-thymine Dimer Ab (clone KTM53; Kamiya) at RT. After the incubation period cells were washed twice with PBS-BSA and incubated for 30 min with 20 μg/ml secondary FITC-conjugated anti-mouse IgG at RT. After the incubation with the secondary antibody, cells were washed twice with PBS-BSA and fixed again with 4% PFA for 15 min at RT. Slides were analyzed by confocal microscopy.
This experiment is thought to reflect the in-vivo occurring DNA damage following UVB exposure and the protection of such nuclear damage by antioxidants.

The next assay relates to human skin. As to the kind of experiment: UVB irradiation of human skin measuring damage by formation of sunburn cells (sunburn cell assay). It counts as in vivo. To be noted: for reduction in SBCs: 0.5% w/w in ethanol/water, topical once a day for two weeks, 1.5 MED UVB; for Sun Burn Cell Assay score: normalized to best performer = 20 points. The text has this: Test 1: UVB Irradiation of Human Skin Measuring Damage by Formation of Sunburn Cells (SBC)
Exposure to UV radiation can cause damage of epidermal cells, resulting in the formation of sunburn cells. Since sunburn cells can be counted, their formation provides a relatively sensitive and quantitative measure of the extent of UV radiation damage to the epidermis.
All applications were made to a 5×10 cm area site over the mid-back region once a day for two weeks. Each putative antioxidant was applied to five (n=5) different healthy adult volunteers between the ages of 18 and 60. All Antioxidants were dissolved in ethanol/water at 0.5% w/w concentrations. Additionally, one test site was left untreated and served as a control. Approximately ten minutes after the last application, test sites were irradiated to 1.5 MED (Minimal Erythema Dose) of UVB light, a shave biopsy taken and prepared histologically, and the number of sun burn cells (SBC) evaluated microscopically per High Power Field.
The light source used was a 150 watt xenon arc solar simulator equipped with a UV reflecting dichromic mirror and a 1 mm thick Schott WG-320 (BES Optics Inc., W. Warwick, R.I.) filter to produce simulation of the solar spectrum. A 1 mm thick UG5 filter was added to remove reflected heat and remaining visible radiation.
The MED for each subject was determined by exposing a 1 cm diameter circle to untreated areas to a series of exposures in 25% dose increments from the solar simulator. The MED was defined as the time of exposure required to produce a minimally perceptible erythema 20±4 hours after exposure. Biopsies: Approximately ten minutes after the last topical application of the putative antioxidant, a circular area measuring 1 cm in diameter was exposed to a single dose of 1.5 MED using the solar simulator. Approximately 20 hours later, a shave biopsy (˜4×4 mm) was obtained from each irradiated and untreated control sites. Following injections of a local anesthetic (lidocaine). The skin specimens were immediately fixed in 10% buffered formalin.
The fixed specimens were processed routinely, embedded in paraffin and then sectioned and stained with hematoxylin-eosin. The numbers of sun burn cells (SBC) were determined in at least 12 sections at 50 u intervals. A minimum of 70 high power fields (HPF) was counted from each biopsy and the average number of SBCs per HPF determined. All specimens were counted in a blinded manner.
FIG. 3 expresses the photoprotective benefits of the antioxidants tested based on the percent change over baseline (delta percent) for the number of SBC per HPF.

The nature of assay [2]: Global relative antioxidant activity: total oxidative stress protective capacity score (sum of five tests). Conditions: sum of five equally weighted tests, maximum 100. The text has this:
Each oxidant was scored in each test, the results were then totaled for each antioxidant for each of the tests on an equal weighted basis. The total score of a particular antioxidant is reflective of the overall oxidative stress protective capacity of the antioxidant.
The five tests, which were equally weighted at 20 points each, allowed for the maximum highest possible score of 100 points. Using this scale, the higher score indicates higher oxidative stress protective capacity of the antioxidant. Equal weight was given to an antioxidant's performance in each study because each study tested the antioxidant's ability to protect against a unique different set of oxidative stress parameters.
A total oxidative stress protective capacity score for each antioxidant was determined by adding the results of the five tests for each antioxidant. Each of the five tests was assigned equal weight. That is, each antioxidant could receive a maximum of 20 points in each test so that each test contributed equally to the total score for each antioxidant.

Assay [3] can be described thus: Microsome pro-oxidative system (NADPH/ADP/Fe3+) measuring secondary oxidation by-products (MDA equivalents, TBARS). Format: biochemical, male Wistar rats. To be noted: 100 μmol antioxidant; normalized to best performer = 20 points.
Method: Test 4: Microsome Pro-Oxidative System measuring Secondary Oxidation By-Products
In this test, an assessment of antioxidative ability to protect microsomal membrane stressed with NADPH/ADP/Fe^3+-oxidative system measuring secondary oxidative by-products (Malondialdehyde-MDA equivalents) was performed utilizing the Thiobarbituric Acid Reactive Substances (TBARS) method. […] Therefore the pro-oxidative NADPH/ADP/Fe^3+-microsome system was used as an in vitro model system more closely resembling natural cellular biological systems.
Livers were obtained from male Wistar rats weighing between 250 and 400 g. Tissue was homogenized in 50 mmol/L N-2-Hydroxyethylpiperazine-N-2-Ethanesulfonic Acid (HEPES), 250 mmol/L sucrose buffer, pH 7.4, containing 150 mmol/L Potassium Chloride (KCl) and 500 μmol/L EDTA using a kinematica polytron PT3000 (Brinkmann Instruments, Westbury, N.Y.) homogenizer. Microsomal vesicles were isolated by removal of the nuclear fraction at 8,000×g for 10 min at 4° C. and removal of the mitochondrial fraction at 18,000×g for 10 min at 4° C. using a Beckman L8-55 ultracentrifuge and a 50Ti-13 rotor. The microsomal fraction was sedimented at 105,000×g for 60 min at 4° C. The pellet was washed once in 50 mmol/L HEPES and 150 mmol/L KCl, pH7.4, and collected again at 105,000×g for 30 min. The resulting microsomal pellet was resuspended in HEPES/KCl, pH7.4, by careful sonication in ice and stored in portions (10 mg protein/ml) at −80° C. until use.
The microsomal preparations were incubated in the presence of the pro-oxidant system NADPH/ADP/Fe^3+, consisting of 0.20 mmol/L NADPH, 50 mmol/L ADP, and 0.25 mmol/L FeCl3 in HEPES/KCl buffer (150 mmol/L KCl, 50 mmol/L HEPES) with and without the putative antioxidant substances. Oxidation of 1-ml aliquots containing 1 mg of protein was started at 37° C. by the addition of NADPH and was stopped with EDTA (10 mmol/L) after the times indicated in the figure legends. Control incubations without the pro-oxidant system were performed at 37° C. in the presence of EDTA. All Antioxidants were dissolved in water or ethanol and added to the incubations at equivalent 100 μmol concentrations.
Microsomal preparations (500 μl) were mixed with 1 ml of thiobarbituric acid (0.67 g/100 ml, 0.05 mol/L Sodium Hydroxide-NaOH). After the addition of trichloroacetic acid (50% w/v), the samples were heated to 90° C. for 30 min. After cooling and extraction of the samples with 1 ml of butanol, the absorbance of the butanol phase was determined spectrophotometrically at 532 nm. For quantification, an external standard curve was prepared using 1,1,3,3-tetraethoxypropane, which yields MDA.
A short description of assay [4]: Radical scavenging capacity measured by photochemilluminescence (Photochem system). Format: biochemical. To be noted: for Photochemilluminescence score: 10 nmol/L=20, 100 nmol/L=15, 1000 nmol/L=10, >1000 nmol/L=5; for Effective Concentration (to eliminate radical formation): lowest effective concentration, base 10 serial dilution. The text has this: Test 2: Radical Scavenging Capacity Measured by Photochemilluminescence
This test assessed the general antioxidative capacity of substances in their ability to scavenge free radicals via the measurement of radicals generated (or lack thereof) through their reaction with luminol and subsequent light emission.
The individual antioxidant capacity of the putative antioxidant substances was estimated by the Photochem® system (Analytik Jena AG, Jena, Germany, and Analytik Jena USA, Inc., Texas). The system combines the generation of radicals through photochemical excitation with highly sensitive luminometric detection via the radical reaction with luminol to produce measurable light emission. Samples are diluted with pre-made buffers (standardized kits) and applied to the device. The relative antioxidative capacity is determined by comparison to a standardized blank (without antioxidants) and a standard provided with the kit. The ACL-kit (Integral Antioxidative Capacity of lipid-soluble substances) and the ACW-kit ((Integral Antioxidative Capacity of water-soluble substances) were used.
Antioxidant concentrations effective to eliminate radical formulation were established for each antioxidant.

A short description of assay [5]: LDL pro-oxidative system (CuSO4) measuring primary oxidation by-products (lipid hydroperoxides). It counts as biochemical. Conditions: 100 μmol antioxidant; normalized to best performer = 20 points. The text has this:
Test 3: LDL Pro-Oxidative Systems Measuring Primary & By-Products
This test assessed the ability of the antioxidant to protect LDL stressed with Copper Sulfate (Cu—SO4) oxidative system. The CuSO4-LDL system was used to evaluate the protection of lipid bulks over time measuring the primary by-products of lipid peroxidation—the highly reactive and cytotoxic lipid hydroperoxides.
After isolation, LDLs were extensively dialyzed against a degassed and nitrogen-saturated Tris-Hydrochloric (HCl) buffer (5 mmol/L, pH7.4) containing 1 mmol/L EDTA. Before oxidation by CuSO4, EDTA was removed from LDL by dialysis against a Tris-HCl buffer (5 mmol/L, pH7.4) without added EDTA.
Lipid hydroperoxides were determined with the Cayman Lipid Peroxidation (LPO) Assay Kit (Cayman Chemical, Ann Arbor, Mich.) which measures the hydroperoxides directly utilizing the redox reactions with ferrous ions to produce ferric ions which can be detected using thiocyanate ion as the chromogen.

For the molecule `Cc1c(C)c2c(c(C)c1O)CCC(C)(CCCC(C)CCCC(C)CCCC(C)C)O2` (racemic) [Tocopherol, dl-alpha tocopherol], in assay [1], the “Positive cells after UVB radiation (anti-thymine dimer antibody positive cells)” value (“Positive cells after UVB radiation” below) turned out to be 35%, the “Inhibition of photoproduct generation (protective effect)” value (from here on “Inhibition of photoproduct generation”) is 34% and the “UVB Irradiated Keratinocytes score” value amounted to 17 points. Further, in the assay on human skin, the “reduction in SBCs” value was 31% and the “Sun Burn Cell Assay score” value is recorded as 16 points. Moreover, in the assay with human skin (percentage reduction divided by that of idebenone), the “relative activity (efficacy) to the standard idebenone in sun burn cell assay” value is recorded as 82%. Moreover, the “Total Points (Total Score)” value in assay [2] was 80 points. Also, the “Secondary Oxidative Products score” value in assay [3] is on record as 17 points. In assay [4], the Photochemilluminescence score was determined as 20 points and the “Effective Concentration (to eliminate radical formation)” value (shortened to “Effective Concentration”) is 10 nmol/L. Besides, the “Primary Oxidative Products score” value in assay [5] worked out at 10 points.

In the case of `O=C(O)CCCCC1CCSS1` (racemic) [lipoic acid, dl-alpha lipoic acid], in assay [1], the “Positive cells after UVB radiation” value is listed as 53%, the “Inhibition of photoproduct generation” value is given as 0% and the “UVB Irradiated Keratinocytes score” value was 7 points. In the assay on human skin, the “Sun Burn Cell Assay score” value was 5 points. In addition, the “Total Points (Total Score)” value in assay [2] is reported as 41 points. Moreover, the “Secondary Oxidative Products score” value in assay [3] is listed as 20 points. In addition, in assay [4], the Photochemilluminescence score is recorded as 5 points and the “Effective Concentration” value is recorded as >1000 (not detectable) nmol/L. Also, the “Primary Oxidative Products score” value in assay [5] was 4 points.

`O=C1O[C@H]([C@@H](O)CO)C(O)=C1O` [Ascorbic acid, 1-ascorbic acid]: in assay [1], the “Positive cells after UVB radiation” value amounted to 34%, the “Inhibition of photoproduct generation” value came to 36% and the “UVB Irradiated Keratinocytes score” value was determined as 17 points. Also, in the assay with human skin, the “Sun Burn Cell Assay score” value was 0 points.

On to `COC1=C(OC)C(=O)C(CCCCCCCCCCO)=C(C)C1=O` [Idebenone, 6-(10-hydroxydecyl)-2,3-dimethoxy-5-methyl-1,4-benzoquinone], for which, in assay [1], the “Positive cells after UVB radiation” value is reported as 29%, the “Inhibition of photoproduct generation” value stood at 45% and the “UVB Irradiated Keratinocytes score” value is 20 points. For the same molecule, in the assay on human skin, the “reduction in SBCs” value was determined as 38% and the “Sun Burn Cell Assay score” value came to 20 points. For the same molecule, the “Total Points (Total Score)” value in assay [2] is reported as 95 points. The “Secondary Oxidative Products score” value in assay [3] came to 19 points. In assay [4], the Photochemilluminescence score is reported as 20 points and the “Effective Concentration” value is on record as 10 nmol/L. For the same molecule, in assay [5], the “Primary Oxidative Products score” value was 16 points.

As for `c1coc(CNc2ncnc3[nH]cnc23)c1` [Kinetin, kinetin], in assay [1], the “Positive cells after UVB radiation” value worked out at 34%, the “Inhibition of photoproduct generation” value came to 36% and the “UVB Irradiated Keratinocytes score” value was 17 points. In addition, the “Sun Burn Cell Assay score” value with human skin came to 11 points.

As to `COC1=C(OC)C(=O)C(C/C=C(\C)CC/C=C(\C)CC/C=C(\C)CC/C=C(\C)CC/C=C(\C)CC/C=C(\C)CC/C=C(\C)CC/C=C(\C)CC/C=C(\C)CCC=C(C)C)=C(C)C1=O` [Ubiquinone, ubiquinone], in assay [1], the “Positive cells after UVB radiation” value turned out to be 51%, the “Inhibition of photoproduct generation” value came out at 4% and the “UVB Irradiated Keratinocytes score” value amounted to 17 points. Besides, the “Sun Burn Cell Assay score” value with human skin came out at 6 points. Further, the “Total Points (Total Score)” value in assay [2] came out at 55 points. Moreover, the “Secondary Oxidative Products score” value in assay [3] is listed as 12 points. In assay [4], the Photochemilluminescence score was 15 points and the “Effective Concentration” value came out at 100 nmol/L. Also, in assay [5], the “Primary Oxidative Products score” value is given as 5 points.
